Measured values reported in patent publication US20180355326A1, “CYTOCHROME P450 AND CYTOCHROME P450 REDUCTASE POLYPEPTIDES, ENCODING NUCLEIC ACID MOLECULES AND USES THEREOF” (UNIVERSITY OF BRITISH COLUMBIA, priority 2012, published 2018).
Blank lines part the entries; values can stand above or below the molecule they belong to.

How the values were obtained:
[1] = biological target: T1, SaCYP76F39v1 (SaCYP76-G10) (Santalum album, UniProt V5RH69); test: Oxidation of various mono- and sesquiterpene substrates in vitro by SaCYP76F39v1; settings: product formation the same as that catalyzed by CYP76-G5
Description: The reaction mixtures contained 50 mM potassium phosphate, 0.8 mM NADPH and 60 to 80 μM of the terpene substrate in a total volume of 350 μL. Enzyme reactions were started by adding 50 μL of the microsome preparation, incubated at 30° C. for 1 hour with shaking and stopped by extraction with 500 μL of hexane/ethyl acetate (85:15). […] The reaction products were identified based on matches of the MS fragmentation patterns with entries in the NIST and Wiley libraries (Wiley Registry® 9th Edition/NIST 2011; Fred W. McLafferty, John Wiley & Sons, Inc.).

[2] = test system: SaCYP76F38v1 (SaCYP76-G5); test: Oxidation of various mono- and sesquiterpene substrates by yeast microsomes containing SaCYP76F38v1; type: biochemical, Santalum album; settings: 60 to 80 μM of the terpene substrate, 30° C., 1 hour, GC-MS, compared to vector control
Description: The reaction mixtures contained 50 mM potassium phosphate, 0.8 mM NADPH and 60 to 80 μM of the terpene substrate in a total volume of 350 μL. Enzyme reactions were started by adding 50 μL of the microsome preparation, incubated at 30° C. for 1 hour with shaking and stopped by extraction with 500 μL of hexane/ethyl acetate (85:15). The organic layer was concentrated under a gentle stream of N2 gas to about 100 μL and analyzed by GC-MS analysis as described in Example 6. […] The reaction products were identified based on matches of the MS fragmentation patterns with entries in the NIST and Wiley libraries (Wiley Registry® 9th Edition/NIST 2011; Fred W. McLafferty, John Wiley & Sons, Inc.).

[3] = biological target: T2, SaCYP76F37v1 (SaCYP76-G11) (Santalum album, UniProt V5RGC8); test: Oxidation of individual sesquiterpenes by microsomes containing SaCYP76F37v1; type: biochemical; settings: partially purified substrate fraction, GC-MS
Description: (§1) Assays were performed in 400 μL reaction volumes containing 50 mM potassium phosphate pH 7.5, 0.8 mM NADPH and 40 μM of substrate. Enzyme reactions were initiated by adding 50 μL of the microsomes preparation (prepared in Example 8), incubated at 30° C. for 2 hours with shaking and stopped by adding 500 μL hexane.
(§2) Microsome preparations containing candidate P450 were assayed for their capacity to oxidize individual sesquiterpenes. The sesquiterpenes were isolated as described in Example 9 above. Three fractions containing mainly α-santalene, α-trans-bergamotene, or epi-β-santalene and β-santalene were used as individual substrates in assays containing clade I P450 SaCYP76F39v1 (SaCYP76-G10) or clade II P450 SaCYP76F37v1 (SaCYP76-G11). The assays were performed as described in Section B.1.b. above and products were identified by comparison to authentic standards (see Table 12 and FIG. 20G).

[4] = biological target: T1, SaCYP76F39v1 (SaCYP76-G10); test: In vitro assay 2, microsomes containing SaCYP76F39v1 with a mixture of santalenes and bergamotene; type: biochemical; settings: substrate mixture of santalenes and bergamotene; no product in the absence of NADPH or with empty vector microsomes
Description: as §1
Microsomes containing SaCYP76F39v1 (SaCYP76-G10) were assayed for their activity using the assay described in Section B. above.

[5] = test system: SaCYP76F38v1 (SaCYP76-G5); test: Coupled enzyme assay with SaSSy and FPP, microsomes containing SaCYP76F38v1; type: biochemical, Santalum album; settings: in vitro reaction products of SaSSy and 70 μM FPP, 0.8 mM NADPH, 30° C., 1 hour
Description: Coupled enzyme assays with S. album santalene synthase (SaSSy) expressed in bacteria (Jones et al. (2011) J Biol Chem 286:17445-17454) were initiated with 50 μg of His6-tag purified SaSSy and 70 μM farnesyl pyrophosphate (FPP) in TPS buffer (25 mM HEPES pH 7.5, 5 mM MgCl2, 1 mM DTT) in a volume of 450 μL. The assays were incubated for 30 min at 30° C. followed by the addition of 50 μL of the microsome preparation containing a S. album cytochrome P450 and a cytochrome P450 reductase and 0.8 mM NADPH. The reaction was incubated for an additional 1 hour at 30° C. and was stopped by extraction with 500 μL hexane/ethyl acetate (85:15).

[6] = biological target: T1, SaCYP76F39v1 (SaCYP76-G10); test: Oxidation of individual sesquiterpenes by microsomes containing SaCYP76F39v1; type: biochemical; settings: partially purified substrate fraction, GC-MS
Description: as §1, §2

[7] = biological target: T1, SaCYP76F39v1 (SaCYP76-G10); test: Substrate specificity, yeast microsomes containing SaCYP76F39v1 with various sesquiterpenes; type: biochemical; settings: 40 μM of substrate, 30° C., 2 hours; for activity at 40 µM: rate of product formation relative to product formation by SaCYP76F39v1 with β-santalene
Description: as §1
(§3) To test the range of substrates used by the clade I and clade II SaCYP76F enzymes, yeast microsomes containing SaCYP76F37v1 (SaCYP76-G11) and SaCYP76F39v1 (SaCYP76-G10) were assayed for their ability to convert various sesquiterpenes, including the substrates α-santalene and β-santalene and 7 additional sesquiterpenes which resemble santalenes in the acyclic isoprenyl side chain, including α-curcumene, zingiberine, β-bisabolene, β-sesquiphellandrene, α-bisabolol, trans-β-farnesene and trans-nerolidol. Each substrate was tested using the in vitro assay described in Example 11.B.1.b above.
(§4) The results are shown in Table 15 below, which sets forth the substrates, including their structures, and the relative activities which represent the rate of product formation relative to product formation by SaCYP76F39v1 (SaCYP76-G10) with β-santalene.

[8] = biological target: T2, SaCYP76F37v1 (SaCYP76-G11); test: Substrate specificity, yeast microsomes containing SaCYP76F37v1 with various sesquiterpenes; type: biochemical; settings: 40 μM of substrate, 30° C., 2 hours; for activity at 40 µM: rate of product formation relative to product formation by SaCYP76F39v1 with β-santalene
Description: as §1, §3, §4

[9] = substrate: CC(C)=CCC[C@]1(C)C2C[C@@H]3[C@H](C2)C31C; test: Kinetic assay with α-santalene or β-santalene as the substrate, SaCYP76F39v1; type: biochemical, Santalum album; settings: other: apparent Km, 17 pmol P450, substrate 12 to 138 μM, 0.8 mM NADPH, pH 7.5, 30° C., 20 minutes
Description: (§5) To test the kinetics of the clade I and clade II SaCYP76F enzymes, kinetic assays were performed with SaCYP76F37v1 (SaCYP76-G11) and SaCYP76F39v1 (SaCYP76-G10) with α-santalene or β-santalene as the substrate. Assays were performed in 400 μL reaction volumes containing 50 mM potassium phosphate pH 7.5, 0.8 mM NADPH and substrate concentrations of 12 to 138 μM of α-santalene or β-santalene. Enzyme reactions were initiated by adding either 17 pmol of SaCYP7639v1 or 35 pmol of SaCYP7637v1, incubated at 30° C. for 20 minutes with shaking and stopped by adding 500 μL hexane. […] Kinetic data were evaluated using tools described in Hernandez and Ruiz ((1998) Bioinformatics. 14:227-228).
(§6) The apparent Km values, kcat values and kcat/Km values for SaCYP76F39v1 (SaCYP76-G10) and SaCYP76F37v1 (SaCYP76-G11) with α-santalene and β-santalene are set forth in Table 14 below.

[10] = substrate: C=C1[C@@H]2CC[C@@H](C2)[C@@]1(C)CCC=C(C)C; test: as above; type: biochemical, Santalum album; settings: other: apparent Km, 17 pmol P450, substrate 12 to 138 μM, 0.8 mM NADPH, pH 7.5, 30° C., 20 minutes
Description: as §5, §6

[11] = substrate: CC(C)=CCC[C@]1(C)C2C[C@@H]3[C@H](C2)C31C; test: Kinetic assay with α-santalene or β-santalene as the substrate, SaCYP76F37v1; type: biochemical, Santalum album; settings: other: apparent Km, 35 pmol P450, substrate 12 to 138 μM, 0.8 mM NADPH, pH 7.5, 30° C., 20 minutes
Description: as §5, §6

[12] = substrate: C=C1[C@@H]2CC[C@@H](C2)[C@@]1(C)CCC=C(C)C; test: as above; type: biochemical, Santalum album; settings: other: apparent Km, 35 pmol P450, substrate 12 to 138 μM, 0.8 mM NADPH, pH 7.5, 30° C., 20 minutes
Description: as §5, §6

Molecule: C=CC(C)(O)CCC=C(C)C (stereo not shown) [linalool]
Hydroxylation by CYP76-G10 in vitro [1]: catalyzed the hydroxylation
Products of reaction with SaCYP76F38v1 [2]: two products

Molecule: C=CC(C)(O)CCC=C(C)CCC=C(C)C (stereo not shown) [nerolidol]
Products of reaction with SaCYP76F38v1 [2]: two products

Molecule: CC(C)=CCCC(C)(O)C1CC=C(C)CC1 (stereo not drawn) [α-bisabolol]
Use as a substrate by SaCYP76F39v1 (in words) [7]: low activity
activity at 40 µM [7]: 9.4%
activity at 40 µM [8]: 0%

Molecule: C=CC(C)(O)CC/C=C(\C)CCC=C(C)C (stereo not drawn) [trans-nerolidol]
Use as a substrate by SaCYP76F39v1 (in words) [7]: did not use
activity at 40 µM [7]: 0%
Use as a substrate by SaCYP76F37v1 (in words) [8]: selectively active
activity at 40 µM [8]: 11.3%

Molecule: C=C1C2CCC(C2)[C@@]1(C)CCC=C(C)C (stereo partly drawn) [epi-β-santalene]
Hydroxylation by SaCYP76F39v1 [4]: catalyzed the hydroxylation

Molecule: CC(C)=CCC[C@](C)(O)C1CC=C(C)CC1 (stereo partly shown) [bisabolol]
Hydroxylation by CYP76-G10 in vitro [1]: catalyzed the hydroxylation
Products of reaction with SaCYP76F38v1 [2]: one product

Molecule: C=CC(=C)CC/C=C(\C)CCC=C(C)C [trans-farnesene]
Use as a substrate by SaCYP76F39v1 (in words) [7]: did not use
activity at 40 µM [7]: 0%
activity at 40 µM [8]: 0%

Molecule: CC(C)=CCCC(C)C1C=CC(C)=CC1 (stereo not shown) [zingiberene]
Use as a substrate by SaCYP76F39v1 (in words) [7]: did not use
activity at 40 µM [7]: 0%
activity at 40 µM [8]: 0%

B1: SaCYP76F39v1 (SaCYP76-G10) (Santalum album) (protein)
chain: MDFLSCILFVLFAWALVRALPTLSRGSKAASGRLPPGPVPWPVVGNLLKLGNKPHKSLAELAKSYGPIMCLKLGHMTTIVISTPTVAKEVLQKQDVAFSNRTTPDAVRAHGHDLYSMAWLPVSTRWRTLRKISNSHIFTSQRLDENHHLRRRKLDELLARVAESSLVGAVVDMGAVAFLTSLNLLSNTVFSKDLVEPGLGAVQETKEVVWGMMEEAGRPNLVDYFPVLRRLDPQGIRRRMTGYFGKMLEVFGDIIDERLEWRKQQSDGDSPAGTTNDVLDVLLNIIEDAEIEEKPNRTDVEHFLLDLFAAGSDTTSSTVEWAMTELLRKPETLERARSELHETIGPENLVQEADLPRLPYLQAVVKETFRLHPPVPLLLPRTAEKDAELCGFTVPAGAQIMVNAWAIGRDPGTWEDPESFLPERFLGSDVDVKGRSFELIPFGGGRRICPGLPLAIRMVHLMLGSLIHGFRWKVDDDGMGSPETAMDMDEKFGITLQKAKPLCAVPIRG
Km [9]: 25.92 ± 0.11 µM
kcat [9]: 1.12 s⁻¹
kcat/Km [9]: 43000 M⁻¹ s⁻¹
Km [10]: 34.82 ± 0.41 µM
kcat [10]: 1.17 s⁻¹
kcat/Km [10]: 33000 s⁻¹ M⁻¹

B2: SaCYP76F37v1 (SaCYP76-G11) (Santalum album) (protein)
chain: MDFLSCILSVLFAWALVRALPTLSRGSKAAGGRLPPGPVPLPVVGNLLKLGSKPHKSLAELAKSYGPIMCLKLGHIITIVISTPTVAKEVLQKQDVAFCNRTIPDAVRAHRHDLHSMVWLPVSTRWRTLRKISNSHIFSSQRLDENHHLRRRKLDELLTRVAESSLVGAVVDIGAVAFLTSLNLLSNTVFSKDLVEPGLGAVQEMEEVVWGITEEAGRPNLVDYFPVLRRLDPQGTRRRMMGYFGKMFEVFGDIIDERLEWRKQQSDGDSPAGTTNDVLDVLLNIIEDAEIEEKPNRTDVEHFLLDLFAAGSDTTSSTVEWAMTELLRKPETLERARSELHETIGPENLVQEADLPRLPYLQAVVKETFRLHPPVPLLLPRTAEKDAELCGFTVPAGAQIMVNAWAIGRDPGTWEDPESFLPERFLGSDVDVKGRSFELIPFGGGRRICPGLPLAIRMVHLMLGSLIHGFRWKVDDDGMGSPETAMDMDEKFGITLQKAKPLCAVPIRG
Km [11]: 133 ± 0.41 µM
kcat [11]: 0.2 s⁻¹
kcat/Km [11]: 1500 M⁻¹ s⁻¹
Km [12]: 157 ± 0.17 µM
kcat [12]: 0.13 s⁻¹
kcat/Km [12]: 810 s⁻¹ M⁻¹

Other lines, results leading:

Products formed with SaCYP76F37v1 [3]: only (E)-α-trans-bergamotol
Hydroxylation by SaCYP76F39v1 [4]: catalyzed the hydroxylation
Hydroxylation/oxidation by SaCYP76F38v1 [5]: catalyzed the hydroxylation
Products formed with SaCYP76F39v1 [6]: (Z)- and (E)-α-trans-bergamotol
Molecule: CC(C)=CCCC1(C)C2CC=C(C)C1C2 (stereo not drawn) [α-trans-bergamotene]

Use as a substrate by SaCYP76F39v1 (in words) [7]: did not use
activity at 40 µM [7]: 0%
activity at 40 µM [8]: 0%
Molecule: C=C1C=CC(C(C)CCC=C(C)C)CC1 (stereo not drawn) [β-sesquiphellandrene]

Use as a substrate by SaCYP76F39v1 (in words) [7]: did not use
activity at 40 µM [7]: 0%
activity at 40 µM [8]: 0%
Molecule: C=C(CCC=C(C)C)C1CC=C(C)CC1 (stereo not drawn) [β-bisabolene]

Products formed with SaCYP76F37v1 [3]: only (E)-α-santalol
Hydroxylation by SaCYP76F39v1 [4]: catalyzed the hydroxylation
activity at 40 µM [7]: 99.8%
Products formed with SaCYP76F39v1 [6]: (Z)- and (E)-α-santalol
activity at 40 µM [8]: 17.3%
Molecule: CC(C)=CCC[C@]1(C)C2C[C@@H]3[C@H](C2)C31C [α-santalene]

Hydroxylation by SaCYP76F39v1 [4]: catalyzed the hydroxylation
activity at 40 µM [7]: 100%
activity at 40 µM [8]: 17.7%
Molecule: C=C1[C@@H]2CC[C@@H](C2)[C@@]1(C)CCC=C(C)C [β-santalene]

Use as a substrate by SaCYP76F39v1 (in words) [7]: did not use
activity at 40 µM [7]: 0%
activity at 40 µM [8]: 0%
Molecule: CC(C)=CCCC(C)c1ccc(C)cc1 (stereo not drawn) [α-curcumene]
